# Data reported in US8084649B2, “Herbicides” (Syngenta Crop Protection, inc., priority 2007, dated 2011).
# Test system: Alopecurus myosuroides (ALOMY)
# Test: Pre-emergence herbicidal activity, glasshouse pot test
# Type: in vivo
# Settings: Alopecurus myosuroides, 480 h, rate 500 g/ha, evaluated after 20 days, read-out: Pre-emergence activity, ALOMY (100=total damage to plant; 0=no damage to plant)
# Method: (§1) Monocotyledonous and dicotyledonous test plants were sown in sterilised standard soil in pots. After cultivation for one day (pre-emergence) or after 10 days cultivation (post-emergence) under controlled conditions in a glasshouse, the plants were sprayed with an aqueous spray solution derived from the formulation of the technical active ingredient in 0.6 ml acetone and 45 ml formulation solution containing 10.6% Emulsogen EL (Registry number 61791-12-6), 42.2% N-methylpyrrolidone, 42.2% dipropylene glycol monomethyl ether (Registry number 34590-94-8) and 0.2% X-77 (Registry number 11097-66-8). The test plants were then grown in a greenhouse under optimum conditions until, 14 or 15 days later for post-emergence and 20 days for pre-emergence, the test was evaluated (100=total damage to plant; 0=no damage to plant). Alopecurus myosuroides (ALOMY), Avena fatua (AVEFA), Lolium perenne (LOLPE), Setaria faberi (SETFA), Digitaria sanguinalis (DIGSA), Echinochloa crus-galli (ECHCG) Pre-Emergence Activity
row,Structure (SMILES),pest or weed control at 500 g/ha
1,CCSC(C)CC1CC(=O)C(c2c(C)cc(C)cc2C)=C(O)C1 (centres unmarked) [Compound T9],30%
2,CCCS(=O)(=O)C(C)CC1CC(=O)C(c2c(CC)cc(C)cc2CC)=C(O)C1 (centres unmarked) [Compound T36],100%
3,CCc1cc(C)cc(CC)c1C1=C(OC(=O)C(C)(C)C)CC(C(C)(C)SC)CC1=O (centres unmarked) [Compound P52],100%

# Test system: Echinochloa crus-galli (ECHCG)
# Test: as above
# Type: in vivo
# Settings: Echinochloa crus-galli, 480 h, rate 500 g/ha, evaluated after 20 days, read-out: Pre-emergence activity, ECHCG (100=total damage to plant; 0=no damage to plant)
# Method: as §1
row,Structure (SMILES),pest or weed control at 500 g/ha
1,CCc1cc(C)cc(CC)c1C1=C(OC(=O)C(C)(C)C)CC(C(C)(C)SC)CC1=O (centres unmarked) [Compound P52],100%

# Test system: Setaria faberi (SETFA)
# Test: as above
# Type: in vivo
# Settings: Setaria faberi, 480 h, rate 500 g/ha, evaluated after 20 days, read-out: Pre-emergence activity, SETFA (100=total damage to plant; 0=no damage to plant)
# Method: as §1
row,Structure (SMILES),pest or weed control at 500 g/ha
1,CCCS(=O)(=O)C(C)CC1CC(=O)C(c2c(CC)cc(C)cc2CC)=C(O)C1 (centres unmarked) [Compound T36],100%
2,CCc1cc(C)cc(CC)c1C1=C(OC(=O)C(C)(C)C)CC(C(C)(C)SC)CC1=O (centres unmarked) [Compound P52],100%

# Test system: Digitaria sanguinalis (DIGSA)
# Test: as above
# Type: in vivo
# Settings: Digitaria sanguinalis, 480 h, rate 500 g/ha, evaluated after 20 days, read-out: Pre-emergence activity, DIGSA (100=total damage to plant; 0=no damage to plant)
# Method: as §1
row,Structure (SMILES),pest or weed control at 500 g/ha
1,CCSC(C)CC1CC(=O)C(c2c(C)cc(C)cc2C)=C(O)C1 (centres unmarked) [Compound T9],40%
2,CCCS(=O)(=O)C(C)CC1CC(=O)C(c2c(CC)cc(C)cc2CC)=C(O)C1 (centres unmarked) [Compound T36],100%
3,CCc1cc(C)cc(CC)c1C1=C(OC(=O)C(C)(C)C)CC(C(C)(C)SC)CC1=O (centres unmarked) [Compound P52],100%

# Test system: Lolium perenne (LOLPE)
# Test: as above
# Type: in vivo
# Settings: Lolium perenne, 480 h, rate 500 g/ha, evaluated after 20 days, read-out: Pre-emergence activity, LOLPE (100=total damage to plant; 0=no damage to plant)
# Method: as §1
row,Structure (SMILES),pest or weed control at 500 g/ha
1,CCSC(C)CC1CC(=O)C(c2c(C)cc(C)cc2C)=C(O)C1 (centres unmarked) [Compound T9],0%
2,CCCS(=O)(=O)C(C)CC1CC(=O)C(c2c(CC)cc(C)cc2CC)=C(O)C1 (centres unmarked) [Compound T36],100%

# Test system: Avena fatua (AVEFA)
# Test: as above
# Type: in vivo
# Settings: Avena fatua, 480 h, rate 500 g/ha, evaluated after 20 days, read-out: Pre-emergence activity, AVEFA (100=total damage to plant; 0=no damage to plant)
# Method: as §1
row,Structure (SMILES),pest or weed control at 500 g/ha
1,CCSC(C)CC1CC(=O)C(c2c(C)cc(C)cc2C)=C(O)C1 (centres unmarked) [Compound T9],30%
2,CCCS(=O)(=O)C(C)CC1CC(=O)C(c2c(CC)cc(C)cc2CC)=C(O)C1 (centres unmarked) [Compound T36],90%
3,CCc1cc(C)cc(CC)c1C1=C(OC(=O)C(C)(C)C)CC(C(C)(C)SC)CC1=O (centres unmarked) [Compound P52],100%

# Test system: Alopecurus myosuroides (ALOMY)
# Test: Post-emergence herbicidal activity, glasshouse pot test
# Type: in vivo
# Settings: Alopecurus myosuroides, rate 500 g/ha, evaluated after 14 or 15 days, read-out: Post-emergence activity, ALOMY (100=total damage to plant; 0=no damage to plant)
# Method: as §1, with “Post-Emergence” for “Pre-Emergence”
row,Structure (SMILES),pest or weed control at 500 g/ha
1,CCSC(C)CC1CC(=O)C(c2c(C)cc(C)cc2C)=C(O)C1 (centres unmarked) [Compound T9],50%
2,CCCS(=O)(=O)C(C)CC1CC(=O)C(c2c(CC)cc(C)cc2CC)=C(O)C1 (centres unmarked) [Compound T36],90%
3,CCc1cc(C)cc(CC)c1C1=C(OC(=O)C(C)(C)C)CC(C(C)(C)SC)CC1=O (centres unmarked) [Compound P52],100%

# Test system: Echinochloa crus-galli (ECHCG)
# Test: as above
# Type: in vivo
# Settings: Echinochloa crus-galli, rate 500 g/ha, evaluated after 14 or 15 days, read-out: Post-emergence activity, ECHCG (100=total damage to plant; 0=no damage to plant)
# Method: as §1, with “Post-Emergence” for “Pre-Emergence”
row,Structure (SMILES),pest or weed control at 500 g/ha
1,CCSC(C)CC1CC(=O)C(c2c(C)cc(C)cc2C)=C(O)C1 (centres unmarked) [Compound T9],80%
2,CCCS(=O)(=O)C(C)CC1CC(=O)C(c2c(CC)cc(C)cc2CC)=C(O)C1 (centres unmarked) [Compound T36],100%
3,CCc1cc(C)cc(CC)c1C1=C(OC(=O)C(C)(C)C)CC(C(C)(C)SC)CC1=O (centres unmarked) [Compound P52],90%

# Test system: Setaria faberi (SETFA)
# Test: as above
# Type: in vivo
# Settings: Setaria faberi, rate 500 g/ha, evaluated after 14 or 15 days, read-out: Post-emergence activity, SETFA (100=total damage to plant; 0=no damage to plant)
# Method: as §1, with “Post-Emergence” for “Pre-Emergence”
row,Structure (SMILES),pest or weed control at 500 g/ha
1,CCSC(C)CC1CC(=O)C(c2c(C)cc(C)cc2C)=C(O)C1 (centres unmarked) [Compound T9],80%
2,CCCS(=O)(=O)C(C)CC1CC(=O)C(c2c(CC)cc(C)cc2CC)=C(O)C1 (centres unmarked) [Compound T36],50%
3,CCc1cc(C)cc(CC)c1C1=C(OC(=O)C(C)(C)C)CC(C(C)(C)SC)CC1=O (centres unmarked) [Compound P52],90%

# Test system: Digitaria sanguinalis (DIGSA)
# Test: as above
# Type: in vivo
# Settings: Digitaria sanguinalis, rate 500 g/ha, evaluated after 14 or 15 days, read-out: Post-emergence activity, DIGSA (100=total damage to plant; 0=no damage to plant)
# Method: as §1, with “Post-Emergence” for “Pre-Emergence”
row,Structure (SMILES),pest or weed control at 500 g/ha
1,CCSC(C)CC1CC(=O)C(c2c(C)cc(C)cc2C)=C(O)C1 (centres unmarked) [Compound T9],90%
2,CCCS(=O)(=O)C(C)CC1CC(=O)C(c2c(CC)cc(C)cc2CC)=C(O)C1 (centres unmarked) [Compound T36],70%
3,CCc1cc(C)cc(CC)c1C1=C(OC(=O)C(C)(C)C)CC(C(C)(C)SC)CC1=O (centres unmarked) [Compound P52],90%

# Test system: Lolium perenne (LOLPE)
# Test: as above
# Type: in vivo
# Settings: Lolium perenne, rate 500 g/ha, evaluated after 14 or 15 days, read-out: Post-emergence activity, LOLPE (100=total damage to plant; 0=no damage to plant)
# Method: as §1, with “Post-Emergence” for “Pre-Emergence”
row,Structure (SMILES),pest or weed control at 500 g/ha
1,CCSC(C)CC1CC(=O)C(c2c(C)cc(C)cc2C)=C(O)C1 (centres unmarked) [Compound T9],50%
2,CCCS(=O)(=O)C(C)CC1CC(=O)C(c2c(CC)cc(C)cc2CC)=C(O)C1 (centres unmarked) [Compound T36],90%
3,CCc1cc(C)cc(CC)c1C1=C(OC(=O)C(C)(C)C)CC(C(C)(C)SC)CC1=O (centres unmarked) [Compound P52],100%

# Test system: Avena fatua (AVEFA)
# Test: as above
# Type: in vivo
# Settings: Avena fatua, rate 500 g/ha, evaluated after 14 or 15 days, read-out: Post-emergence activity, AVEFA (100=total damage to plant; 0=no damage to plant)
# Method: as §1, with “Post-Emergence” for “Pre-Emergence”
row,Structure (SMILES),pest or weed control at 500 g/ha
1,CCSC(C)CC1CC(=O)C(c2c(C)cc(C)cc2C)=C(O)C1 (centres unmarked) [Compound T9],50%
2,CCCS(=O)(=O)C(C)CC1CC(=O)C(c2c(CC)cc(C)cc2CC)=C(O)C1 (centres unmarked) [Compound T36],90%
3,CCc1cc(C)cc(CC)c1C1=C(OC(=O)C(C)(C)C)CC(C(C)(C)SC)CC1=O (centres unmarked) [Compound P52],90%
